Source: patent US10154970B2, “Methods for immunomodulation of cancer and infectious disease therapy” (The Regents of the University of California, priority 2014, dated 2018)
Like-named read-outs stand apart in the source and are kept apart here.

Tested on: IFN-γ
Conditions: for antigen-specific immune response to the PV: short-course treatment
Protocol: FIG. 5. Effect of TRIP on the immune response to an antigen-specific peptide vaccine (PV). Mice received 8 weekly 10-μg doses of PV and daily oral TRIP treatment for the final 16 days of the study. Lymphocytes were isolated 48 hours after the final dose of PV for the enzyme-linked immunosorbent spot (ELISpot) assay. Data are expressed as the number of spot forming cells (SFC)/500,000 lymphocytes following exposure to medium (no peptide), scrambled peptide, and BP25 peptide.
A total of 43 wild type C57BL/6 mice were assigned to four different treatment groups: Control (n=10); and TRIP (i.e., ospemifene) 10, 50, and 100 mg/kg (n=11, all TRIP groups). All mice received a full course of tecemotide (L-BLP25) peptide vaccine (PV) immunotherapy (eight weekly 10 μg doses administered subcutaneously (s.c.) as described in Wurz G T. et al., J. Transl. Med., 11:64 (2013)). During the final 16 days of immunotherapy, mice received daily oral doses of TRIP according to treatment group assignment. TRIP oral dosing solutions were prepared by dissolving an appropriate amount of the drug in pure dimethyl sulfoxide (DMSO) and then adding peanut oil to the desired final concentration (final DMSO concentration was 2%). All doses were administered in a volume of 100 μl using 20-gauge stainless steel oral feeding needles. Control mice were given diluent only. Forty-eight hours following the final dose of PV, all mice were euthanized for the collection of blood for cytokine analysis by multiplex and spleens for assessing immune response by enzyme-linked immunosorbent spot (ELISpot) assay.
Data are expressed as the number of spot forming cells (SFC)/500,000 lymphocytes following exposure to medium (no peptide), scrambled peptide, and BP25 peptide.

`OCCOc1ccc(/C(=C(/CCCl)c2ccccc2)c2ccccc2)cc1` [TRIP, Z-2-[4-(4-chloro-1,2-diphenyl-but-1-enyl)-phenoxy]ethanol] was tested, and the “IFN-γ immune response by ELISpot, TRIP combined with PV vs PV alone” value (TRIP 10, 50, 100 mg/kg daily oral final 16 days + 8 weekly 10 μg PV s.c.) was “significantly increase”, the “antigen-specific immune response to the PV” value (high (100 mg/kg) dose of TRIP) was “significantly increased” and the “antigen-specific immune response to the PV” value (low (10 mg/kg) dose of TRIP) was “significantly increased”.
